{"source": "ChEMBL document CHEMBL1201862", "about": "“PubChem BioAssay data set” (2004)", "key": {"[1]": {"target": "Glucose-6-phosphate 1-dehydrogenase (Homo sapiens, UniProt P11413)", "sequence (P11413 whole entry)": "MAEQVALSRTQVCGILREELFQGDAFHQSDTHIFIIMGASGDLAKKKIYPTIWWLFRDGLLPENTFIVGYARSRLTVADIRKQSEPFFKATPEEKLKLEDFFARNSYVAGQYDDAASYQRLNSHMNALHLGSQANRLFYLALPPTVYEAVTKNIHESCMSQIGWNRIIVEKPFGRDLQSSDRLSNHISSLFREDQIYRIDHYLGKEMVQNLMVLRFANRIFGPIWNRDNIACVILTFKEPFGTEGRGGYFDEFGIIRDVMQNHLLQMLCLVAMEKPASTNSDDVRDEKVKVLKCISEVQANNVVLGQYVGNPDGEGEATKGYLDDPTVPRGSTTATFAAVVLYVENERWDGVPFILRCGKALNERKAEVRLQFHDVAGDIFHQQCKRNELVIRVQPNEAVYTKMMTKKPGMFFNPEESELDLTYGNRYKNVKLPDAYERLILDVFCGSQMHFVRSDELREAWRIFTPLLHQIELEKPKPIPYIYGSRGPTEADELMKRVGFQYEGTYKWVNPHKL", "assay": "inhibition of Homo sapiens G6PD, dose series – biochemical, fluorescence, selectivity assay for P. falciparum G6PD inhibitor project, dose response (AID 504792)", "assay_type": "functional"}, "HeLa": {"system": "HeLa", "assay": "ATP-based viability loss in HeLa cells – cell-based, CellTiter-Glo luminescence, cherry-pick samples, cytotoxicity control for MITF activator project, dose response (AID 540259)", "assay_type": "functional", "details": "Homo sapiens"}, "[2]": {"target": "72 kDa type IV collagenase (Homo sapiens, UniProt P08253)", "sequence (P08253 whole entry)": "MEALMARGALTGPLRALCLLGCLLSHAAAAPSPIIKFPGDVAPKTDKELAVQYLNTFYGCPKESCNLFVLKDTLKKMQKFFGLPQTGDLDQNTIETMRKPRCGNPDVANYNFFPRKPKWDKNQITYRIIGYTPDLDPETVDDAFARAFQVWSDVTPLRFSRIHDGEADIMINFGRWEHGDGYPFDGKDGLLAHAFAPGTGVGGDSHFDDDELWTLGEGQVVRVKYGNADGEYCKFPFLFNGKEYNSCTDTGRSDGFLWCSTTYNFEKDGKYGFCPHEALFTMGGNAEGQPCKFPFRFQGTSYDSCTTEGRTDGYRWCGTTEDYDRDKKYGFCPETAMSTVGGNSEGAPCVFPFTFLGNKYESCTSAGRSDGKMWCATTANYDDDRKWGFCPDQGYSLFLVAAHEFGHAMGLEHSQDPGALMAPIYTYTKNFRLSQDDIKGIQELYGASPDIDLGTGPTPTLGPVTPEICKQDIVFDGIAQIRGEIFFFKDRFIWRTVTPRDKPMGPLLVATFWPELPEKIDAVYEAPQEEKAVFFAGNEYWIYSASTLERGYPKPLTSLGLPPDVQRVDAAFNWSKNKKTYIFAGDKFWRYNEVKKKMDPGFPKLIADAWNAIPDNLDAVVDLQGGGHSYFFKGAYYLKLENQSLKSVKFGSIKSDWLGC", "assay": "Dose Response validation of uHTS RPN11 inhibitor hits using a MMP-2 Fluorescence assay.", "assay_type": "functional"}, "[3]": {"target": "Delta-type opioid receptor (Homo sapiens, UniProt P41143)", "sequence (P41143 whole entry)": "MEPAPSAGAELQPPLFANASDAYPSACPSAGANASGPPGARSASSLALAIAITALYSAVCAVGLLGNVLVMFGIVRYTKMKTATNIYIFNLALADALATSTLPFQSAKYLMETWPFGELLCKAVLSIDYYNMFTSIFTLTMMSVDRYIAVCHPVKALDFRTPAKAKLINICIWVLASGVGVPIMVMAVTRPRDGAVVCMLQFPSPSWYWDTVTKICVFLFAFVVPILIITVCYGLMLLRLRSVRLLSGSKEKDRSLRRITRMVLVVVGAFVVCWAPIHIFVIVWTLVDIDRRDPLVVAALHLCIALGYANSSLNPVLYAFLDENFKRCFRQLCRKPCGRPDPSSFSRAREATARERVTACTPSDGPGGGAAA", "assay": "Counterscreen for agonists of heterodimerization of the mu 1 (OPRM1) and delta 1 (OPRD1) opioid receptors: Luminescence-based cell-based high throughput dose response assay to identify agonists of OPRD1 homodimerization. [Related pubchem assays (depositor defined):AID504326, AID504355, AID504692, AID504904, AID504905]", "assay_type": "functional"}, "[4]": {"target": "T1, Apoptotic protease-activating factor 1 (Homo sapiens, UniProt O14727)", "T1 sequence (O14727 whole entry)": "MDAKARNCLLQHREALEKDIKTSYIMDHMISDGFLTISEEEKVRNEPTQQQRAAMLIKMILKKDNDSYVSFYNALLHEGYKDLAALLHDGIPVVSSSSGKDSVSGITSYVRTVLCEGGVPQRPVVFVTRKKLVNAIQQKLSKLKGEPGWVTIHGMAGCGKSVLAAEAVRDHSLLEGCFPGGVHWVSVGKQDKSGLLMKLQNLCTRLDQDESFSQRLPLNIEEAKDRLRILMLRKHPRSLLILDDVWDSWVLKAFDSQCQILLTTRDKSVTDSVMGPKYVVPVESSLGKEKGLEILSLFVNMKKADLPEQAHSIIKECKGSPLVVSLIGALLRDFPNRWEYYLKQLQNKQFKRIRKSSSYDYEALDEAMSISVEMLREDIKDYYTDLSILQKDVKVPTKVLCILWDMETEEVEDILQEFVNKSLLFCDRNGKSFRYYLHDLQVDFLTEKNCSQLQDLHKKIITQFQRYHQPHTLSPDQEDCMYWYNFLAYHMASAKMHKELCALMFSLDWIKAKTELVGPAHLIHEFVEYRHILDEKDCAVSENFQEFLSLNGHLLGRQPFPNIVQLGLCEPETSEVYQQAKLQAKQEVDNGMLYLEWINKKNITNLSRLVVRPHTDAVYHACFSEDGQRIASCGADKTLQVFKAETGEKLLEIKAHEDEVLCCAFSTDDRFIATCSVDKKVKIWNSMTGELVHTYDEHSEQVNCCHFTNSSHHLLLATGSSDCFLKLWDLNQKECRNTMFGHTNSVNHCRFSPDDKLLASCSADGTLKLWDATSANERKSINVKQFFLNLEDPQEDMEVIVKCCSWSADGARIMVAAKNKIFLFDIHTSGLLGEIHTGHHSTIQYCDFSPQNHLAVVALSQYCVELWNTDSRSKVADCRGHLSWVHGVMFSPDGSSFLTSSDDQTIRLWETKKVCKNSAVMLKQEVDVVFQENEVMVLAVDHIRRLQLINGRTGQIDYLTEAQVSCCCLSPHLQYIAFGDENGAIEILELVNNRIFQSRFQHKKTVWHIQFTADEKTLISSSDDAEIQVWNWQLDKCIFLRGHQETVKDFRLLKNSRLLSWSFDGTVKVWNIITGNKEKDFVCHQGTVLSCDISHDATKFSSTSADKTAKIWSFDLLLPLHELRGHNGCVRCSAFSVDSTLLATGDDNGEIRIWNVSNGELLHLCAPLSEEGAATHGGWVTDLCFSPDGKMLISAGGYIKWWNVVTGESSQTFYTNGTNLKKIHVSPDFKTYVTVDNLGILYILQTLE", "assay_type": "functional"}, "Mu-type opioid receptor": {"target": "Mu-type opioid receptor (Homo sapiens, UniProt P35372)", "sequence (P35372 whole entry)": "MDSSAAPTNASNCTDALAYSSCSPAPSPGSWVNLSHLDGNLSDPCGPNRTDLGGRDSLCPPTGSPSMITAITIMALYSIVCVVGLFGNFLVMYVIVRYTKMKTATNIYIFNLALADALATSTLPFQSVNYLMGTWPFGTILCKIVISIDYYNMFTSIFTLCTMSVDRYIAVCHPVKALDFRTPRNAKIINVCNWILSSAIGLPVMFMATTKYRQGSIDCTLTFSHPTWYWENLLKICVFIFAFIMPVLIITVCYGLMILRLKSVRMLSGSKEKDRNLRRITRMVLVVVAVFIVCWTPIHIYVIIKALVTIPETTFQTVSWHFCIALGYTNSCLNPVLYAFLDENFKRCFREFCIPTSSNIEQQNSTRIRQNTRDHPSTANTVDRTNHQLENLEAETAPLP", "assay": "Counterscreen for agonists of heterodimerization of the mu 1 (OPRM1) and delta 1 (OPRD1) opioid receptors: Luminescence-based cell-based high throughput dose response assay to identify agonists of OPRM1 homodimerization.", "assay_type": "functional"}, "[5]": {"target": "26S proteasome non-ATPase regulatory subunit 14 (Homo sapiens, UniProt O00487)", "sequence (O00487 whole entry)": "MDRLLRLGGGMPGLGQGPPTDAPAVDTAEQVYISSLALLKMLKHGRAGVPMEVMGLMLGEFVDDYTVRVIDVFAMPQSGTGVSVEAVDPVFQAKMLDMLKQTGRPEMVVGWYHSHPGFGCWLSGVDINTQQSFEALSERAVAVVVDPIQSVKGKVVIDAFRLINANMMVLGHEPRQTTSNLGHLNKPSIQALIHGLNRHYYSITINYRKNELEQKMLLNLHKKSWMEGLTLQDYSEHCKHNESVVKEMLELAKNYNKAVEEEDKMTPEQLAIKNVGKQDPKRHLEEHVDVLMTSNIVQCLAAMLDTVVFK", "assay": "inhibition of proteasome subunit RPN11 – biochemical, fluorescence polarization, uHTS hits, confirmation (AID 602368)", "assay_type": "functional"}, "Prothrombin": {"target": "Prothrombin (Bos taurus, UniProt P00735)", "assay": "thrombin protease inhibitors – biochemical, fluorescence polarization, uHTS hits, dose response (AID 602369)", "assay_type": "functional"}, "[6]": {"target": "5-hydroxytryptamine receptor 5A (Homo sapiens, UniProt P47898)", "sequence (P47898 whole entry)": "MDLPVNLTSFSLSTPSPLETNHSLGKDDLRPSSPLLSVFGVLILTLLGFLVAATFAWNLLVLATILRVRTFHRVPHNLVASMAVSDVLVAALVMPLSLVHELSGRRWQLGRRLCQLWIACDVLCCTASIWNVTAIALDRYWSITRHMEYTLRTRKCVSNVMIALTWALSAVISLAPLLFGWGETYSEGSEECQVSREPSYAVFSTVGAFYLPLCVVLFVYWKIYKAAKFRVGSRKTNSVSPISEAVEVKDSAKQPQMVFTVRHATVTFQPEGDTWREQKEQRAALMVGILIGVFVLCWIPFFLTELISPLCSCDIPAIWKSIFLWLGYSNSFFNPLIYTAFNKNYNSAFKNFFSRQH", "assay": "Counterscreen for agonists of OPRM1-OPRD1 heterodimerization: luminescence-based cell-based high throughput dose response assay to identify agonists of 5-hydroxytryptamine (serotonin) 5A receptor (HTR5A). [Related pubchem assays (depositor defined):AID504326, AID504355, AID504692, AID504904, AID504905]", "assay_type": "functional"}, "BJ [7]": {"system": "BJ", "assay": "BJ-TERT fibroblast viability loss – cell-based, RAS-independent, luminescence, dose response (AID 1933)", "assay_type": "functional", "details": "Homo sapiens"}, "Streptococcus": {"system": "Streptococcus", "assay": "GAS UMAA2166 growth inhibition – luminescence, BacTiterGlo, counter-screen for streptokinase expression inhibitor project, dose response (AID 1915);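 note: potency for reduction of bacterial viability or growth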", "assay_type": "functional, organism-based"}, "[8]": {"target": "T2, Tyrosine-protein phosphatase non-receptor type 22 (Homo sapiens, UniProt Q9Y2R2)", "T2 sequence (Q9Y2R2 whole entry)": "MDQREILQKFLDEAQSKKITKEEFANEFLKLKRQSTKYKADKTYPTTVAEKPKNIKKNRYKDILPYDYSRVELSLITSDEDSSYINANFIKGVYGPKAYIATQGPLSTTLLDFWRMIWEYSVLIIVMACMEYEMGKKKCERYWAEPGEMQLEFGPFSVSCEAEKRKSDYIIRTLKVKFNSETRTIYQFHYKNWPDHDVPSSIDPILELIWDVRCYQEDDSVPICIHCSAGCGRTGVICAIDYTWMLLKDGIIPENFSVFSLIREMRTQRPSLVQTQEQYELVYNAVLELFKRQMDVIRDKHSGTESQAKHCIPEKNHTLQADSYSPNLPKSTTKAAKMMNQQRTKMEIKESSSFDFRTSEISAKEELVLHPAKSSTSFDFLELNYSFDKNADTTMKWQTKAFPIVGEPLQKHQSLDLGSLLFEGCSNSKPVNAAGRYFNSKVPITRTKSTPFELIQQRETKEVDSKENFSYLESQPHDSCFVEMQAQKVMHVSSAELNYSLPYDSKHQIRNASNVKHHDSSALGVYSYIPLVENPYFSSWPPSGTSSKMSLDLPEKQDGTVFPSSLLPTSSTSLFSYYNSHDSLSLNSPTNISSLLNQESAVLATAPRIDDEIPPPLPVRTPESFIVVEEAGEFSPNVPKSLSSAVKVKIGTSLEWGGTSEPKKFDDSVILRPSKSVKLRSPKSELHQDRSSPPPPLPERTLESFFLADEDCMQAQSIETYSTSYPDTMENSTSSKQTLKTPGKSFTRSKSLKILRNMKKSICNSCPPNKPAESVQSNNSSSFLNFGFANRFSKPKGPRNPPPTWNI", "assay_type": "functional"}, "BJ [9]": {"system": "BJ", "assay": "cells", "assay_type": "functional, cell-based", "details": "Homo sapiens"}, "[10]": {"assay": "DRD fibroblast viability loss – cell-based, non-viral oncogenic, luminescence, dose response (AID 1934)", "assay_type": "functional", "details": "Homo sapiens"}, "Streptokinase A": {"target": "T3, Streptokinase A (Streptococcus pyogenes serotype M1, UniProt P10520)", "T3 sequence (P10520 whole entry)": "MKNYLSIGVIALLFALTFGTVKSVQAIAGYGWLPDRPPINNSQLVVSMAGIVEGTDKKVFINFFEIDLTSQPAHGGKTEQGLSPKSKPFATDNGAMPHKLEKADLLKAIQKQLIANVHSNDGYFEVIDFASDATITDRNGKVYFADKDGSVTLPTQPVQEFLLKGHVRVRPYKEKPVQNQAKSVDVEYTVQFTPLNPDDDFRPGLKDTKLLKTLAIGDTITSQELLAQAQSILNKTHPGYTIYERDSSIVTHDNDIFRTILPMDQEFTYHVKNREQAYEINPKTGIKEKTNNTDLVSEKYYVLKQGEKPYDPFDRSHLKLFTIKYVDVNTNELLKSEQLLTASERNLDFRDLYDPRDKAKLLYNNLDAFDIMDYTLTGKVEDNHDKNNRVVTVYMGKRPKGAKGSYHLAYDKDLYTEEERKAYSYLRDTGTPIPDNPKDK", "assay": "viability-normalized secreted streptokinase activity reduction – plasminogen activation absorbance, OD405, dose response (AID 1914);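 note: secreted streptokinase activity via plasminogen activation per viability signal from cell pellet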", "assay_type": "functional, Streptococcus pyogenes M1 GAS"}, "[11]": {"target": "T2, Tyrosine-protein phosphatase non-receptor type 22", "assay_type": "functional", "remark": "listed apart in the source"}, "[12]": {"target": "T4, Tyrosine-protein phosphatase non-receptor type 7 (Homo sapiens, UniProt P35236)", "T4 sequence (P35236 whole entry)": "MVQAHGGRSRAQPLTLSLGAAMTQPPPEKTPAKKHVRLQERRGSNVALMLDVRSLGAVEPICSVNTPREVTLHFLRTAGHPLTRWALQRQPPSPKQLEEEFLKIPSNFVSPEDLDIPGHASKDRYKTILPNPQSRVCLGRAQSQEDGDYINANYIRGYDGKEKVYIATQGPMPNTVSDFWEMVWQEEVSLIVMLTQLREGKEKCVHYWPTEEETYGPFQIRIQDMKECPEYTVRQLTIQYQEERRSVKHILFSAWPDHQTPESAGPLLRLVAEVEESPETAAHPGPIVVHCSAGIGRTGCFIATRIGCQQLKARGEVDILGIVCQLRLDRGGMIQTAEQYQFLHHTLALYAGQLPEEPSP", "assay_type": "functional"}, "BJ [13]": {"system": "BJ", "assay": "BJ-TERT-LT-ST fibroblast viability loss – cell-based, RAS-independent, luminescence, dose response (AID 1935);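 note: BJ fibroblasts immortalized with TERT plus LT and ST oncogenes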", "assay_type": "functional", "details": "Homo sapiens"}, "[14]": {"system": "Streptococcus sp. 'group A'", "assay": "Streptococcus pyogenes SK(-)GAS viability under kanamycin – luminescence, BacTiterGlo, confirmation, counter-screen for streptokinase expression inhibitor project, dose response (AID 1900)", "assay_type": "functional, organism-based"}, "Vero": {"system": "Vero", "assay": "cells", "assay_type": "functional", "details": "Chlorocebus sabaeus"}}, "note": "The source made the active and inactive calls."}
{"smiles": "COc1ccc(CN(C)S(=O)(=O)c2nnc(NC(=O)c3cccc(C)c3)s2)cc1OC", "values": [{"measurement": "IC50", "setting": "[1]", "value": "61.2 µM (inactive)"}]}
{"smiles": "Cc1nn2cc(-c3ccc(Cl)cc3)cnc2c1Cl", "values": [{"measurement": "AC50", "setting": "HeLa", "value": "108 µM (active)"}]}
{"smiles": "Cc1cc(N2CCN(c3ccc([N+](=O)[O-])c4cccnc34)CC2)c2ccccc2n1", "values": [{"measurement": "IC50", "setting": "[2]", "value": "> 100 µM (inactive)"}, {"measurement": "EC50", "setting": "[3]", "value": "> 92.5 µM (inactive)"}, {"measurement": "IC50", "setting": "[4]", "value": "34 µM (active)"}, {"measurement": "EC50", "setting": "Mu-type opioid receptor", "value": "> 92.5 µM (inactive)"}, {"measurement": "IC50", "setting": "[5]", "value": "27.7 µM (active)"}, {"measurement": "IC50", "setting": "Prothrombin", "value": "27.7 µM (active)"}, {"measurement": "EC50", "setting": "[6]", "value": "> 92.5 µM (inactive)"}]}
{"smiles": "O=C(N/N=C/c1ccccn1)c1ccc(Cl)c(Cl)c1", "values": [{"measurement": "EC50", "setting": "BJ [7]", "value": "21.6 µM (active)"}, {"measurement": "EC50", "setting": "Streptococcus", "value": "22.9 µM (active)"}, {"measurement": "IC50", "setting": "[8]", "value": "> 79.4 µM (inactive)"}, {"measurement": "EC50", "setting": "BJ [9]", "value": "> 150 µM (not active)"}, {"measurement": "EC50", "setting": "[10]", "value": "> 150 µM (not active)"}, {"measurement": "EC50", "setting": "Streptokinase A", "value": "> 150 µM (not active)"}, {"measurement": "IC50", "setting": "[11]", "value": "> 79.4 µM (inactive)"}, {"measurement": "IC50", "setting": "[12]", "value": "> 79.4 µM (inactive)"}, {"measurement": "EC50", "setting": "BJ [13]", "value": "> 150 µM (not active)"}, {"measurement": "EC50", "setting": "[14]", "value": "6.21 µM (active)"}, {"measurement": "CC50", "setting": "Vero", "value": "> 25 µM (active)"}]}
